In patent publication US20100113533A1, “Polymorph II of 4-[4-(Amino)-3- Fluorophenoxy]-N-Methylpyridine-2-Carboxamide” (BAYER SCHERING PHARMA AKTIENGESELLSCHAFT, priority 2006, published 2010):

Test: Solubility in water and in organic solvents
Format: physicochemical

solubility in organic solvents (organic solvents): high solubility | solubility in water (water): high solubility
SMILES: CNC(=O)c1cc(Oc2ccc(NC(=O)Nc3ccc(Cl)c(C(F)(F)F)c3)c(F)c2)ccn1 [polymorph II, 4-[4-({[4-chloro-3-(trifluoromethyl)phenyl]carbamoyl}amino)-3-fluorophenoxy]-N-methylpyridine-2-carboxamide]
